Laboratory results: PubChem BioAssay AID1963828 (Molecular Pharmacology Branch, DTP, NCI, 2024)
pIC50: −log10 of the molar value.

Test system: 991263-137-R1-J2-PDC complex spheroid viability
Experiment: Anticancer human tumor 991263-137-R1-J2-PDC patient-derived colon adenocarcinoma cell line growth inhibition [POLQ]
Settings: for pIC50: curve of first compound; for viability, T/C: stronger effect = lower value
Procedure: Multicellular complex tumor spheroid response to Polymerase (POL) inhibitors (novobiocin, ART-558, RP6685) in combination with a variety of drugs and investigational agents in selected tumor cell lines
The POL inhibitors (novobiocin, ART-558, and RP6685) were evaluated both individually and in combination with standard of care and investigational anticancer small molecules within a complex spheroid model of solid tumors. . Complex spheroids include a stromal component modeled by human endothelial cells (HUVEC) and fibroblasts modeled by human mesenchymal stem cells (MSCs). The concentration ranges selected for each drug and investigational agent were based upon clinically achievable concentrations if the clinical Cmax of the agent was known.
Compounds. The drugs and investigational agents: novobiocin (NSC847541), ART-558 (NSC835418), RP-6685 (NSC848927), peposertib (NSC802822), ceralasertib (NSC780249), elimusertib (NSC800525), camonsertib (NSC841442), AZD-1390 (NSC803789), olaparib (NSC753686), talazoparib (NSC767125), rucaparib (NSC756644), sotorasib (NSC818433), MRTX-1133 (NSC836407), SN-38 (NSC673596), topotecan (NSC609699), epotoside (NSC141540), doxorubicin (NSC123127), gemcitabine (NSC613327), 5-fluorouracil (NSC19893), paclitaxel (NSC125973), vemurafenib (NSC761431), MSA-2 (NSC828583), SN-011 (NSC837082), adavosertib (NSC754352), prexasertib (NSC758257), carboplatin (NSC241240) and oxaliplatin (NSC266046), were obtained from the National Cancer Institute (NCI) Developmental Therapeutics Program Chemical Repository (21). The FDA-approved anticancer drug set is available from the Developmental Therapeutics Program at https://dtp.cancer.gov/organization/dscb/obtaining/. […] The stock solutions were prepared in dimethyl sulfoxide (DMSO, Sigma-Aldrich, St. Louis, MO, cat. D2650), except for the platinum compounds which were prepared in saline (Quality Biological, Gaithersburg, MD, cat. 114-055-101), at 800-fold the tested concentration and stored at -70 degrees C prior to their use. All drugs and investigational agents were tested over a range starting from a high concentration at or near the clinical Cmax and decreasing in half-log increments. If the clinical Cmax for an agent had not been determined, the highest concentration tested was 10 microM, except for SN-38, which was tested at a high concentration of 1 microM.
Cell Culture. All cells were maintained in an incubator at 37 degrees C and 5% CO2 with 95% humidity. The PDC lines were cultured according to standard operating procedures established by the NCI PDMR (https://pdmr.cancer.gov). Table 3 of the manuscript, lists the cell lines along with the number of the three cell types plated to form the mct-spheroids and media for tumor cell growth. After thawing, all PDC lines, except 997537-175-T-J1-PDC and 415267-285-R-J2-PDC, were cultured in Matrigel-coated flasks prepared with a working solution of 1X Ham's F-12 nutrient mix, without supplementation (Thermo Fisher Scientific, cat. 11765054), 100 U/mL penicillin-streptomycin (Thermo Fisher Scientific, cat. 15140122), and 2.5% Matrigel (Corning Inc., Corning, NY, cat. 354248) for the first three passages. The two PDC lines 997537-175-T-J1-PDC and 415267-285-R-J2-PDC were cultured on uncoated flasks. The 857933-349-R-J2-PDC line was cultured in 6C/Colon 1B media containing advanced DMEM/F-12 (Thermo Fisher Scientific, cat. 12634028), 10 mM HEPES (Thermo Fisher Scientific, cat. 15630080), 1X GlutaMAX supplement (Thermo Fisher Scientific, cat. 35050061), 0.1 mg/mL primocin (InvivoGen, San Diego, CA, cat. ant-pm-2), 10% defined fetal bovine serum, heat inactivated (HyClone Laboratories Inc., Logan, UT, cat. SH30070.03HI), 50% L-WRN conditioned media (ATCC, cat. CRL-3276), 1.25 mM N-Acetyl-L-cysteine (Sigma-Aldrich, cat. A9165), 10 mM nicotinamide (Sigma-Aldrich, cat. N0636), 1X B-27 supplement (Thermo Fisher Scientific, cat. 17504044), 1X N-2 supplement (Thermo Fisher Scientific, cat. […]

[1] = second compound 0.0316 µM, first compound 0.0316 µM
[2] = second compound 0.0316 µM, first compound 0.1 µM
[3] = second compound 0.0316 µM, first compound 0.316 µM
[4] = second compound 0.0316 µM, first compound 1 µM
[5] = second compound 0.0316 µM, first compound 3.16 µM
[6] = second compound 0.0316 µM, first compound 10 µM
[7] = second compound 0.1 µM, first compound 0.0316 µM
[8] = second compound 0.1 µM, first compound 0.1 µM
[9] = second compound 0.1 µM, first compound 0.316 µM
[10] = second compound 0.1 µM, first compound 1 µM
[11] = second compound 0.1 µM, first compound 3.16 µM
[12] = second compound 0.1 µM, first compound 10 µM
[13] = second compound 0.316 µM, first compound 0.0316 µM
[14] = second compound 0.316 µM, first compound 0.1 µM
[15] = second compound 0.316 µM, first compound 0.316 µM
[16] = second compound 0.316 µM, first compound 1 µM
[17] = second compound 0.316 µM, first compound 3.16 µM
[18] = second compound 0.316 µM, first compound 10 µM
[19] = second compound 1 µM, first compound 0.0316 µM
[20] = second compound 1 µM, first compound 0.1 µM
[21] = second compound 1 µM, first compound 0.316 µM
[22] = second compound 1 µM, first compound 1 µM
[23] = second compound 1 µM, first compound 3.16 µM
[24] = second compound 1 µM, first compound 10 µM
[25] = second compound 3.16 µM, first compound 0.0316 µM
[26] = second compound 3.16 µM, first compound 0.1 µM
[27] = second compound 3.16 µM, first compound 0.316 µM
[28] = second compound 3.16 µM, first compound 1 µM
[29] = second compound 3.16 µM, first compound 3.16 µM
[30] = second compound 3.16 µM, first compound 10 µM
[31] = second compound 10 µM, first compound 0.0316 µM
[32] = second compound 10 µM, first compound 0.1 µM
[33] = second compound 10 µM, first compound 0.316 µM
[34] = second compound 10 µM, first compound 1 µM
[35] = second compound 10 µM, first compound 3.16 µM
[36] = second compound 10 µM, first compound 10 µM
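Further: spheroids exposed to compounds for 7 days before readout.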
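Wherever viability, T/C is given: 100% = DMSO vehicle control viability.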

C#Cc1c(F)ccc2cc(O)cc(-c3ncc4c(N5CC6CCC(C5)N6)nc(OCC56CCCN5CC(F)C6)nc4c3F)c12 (centres undefined) + Nc1ccc(C#CCN(C(=O)Cc2ncc(C(F)(F)F)cc2C(F)(F)F)c2ccc(F)cc2)nn1
pIC50 (second compound 0.0316 µM): < 5.00
pIC50 (second compound 0.1 µM): < 5.00
pIC50 (second compound 0.316 µM): < 5.00
pIC50 (second compound 1 µM): < 5.00
pIC50 (second compound 3.16 µM): < 5.00
pIC50 (second compound 10 µM): < 5.00
viability, T/C [1]: 104%
viability, T/C [2]: 111%
viability, T/C [3]: 99.6%
viability, T/C [4]: 102%
viability, T/C [5]: 105%
viability, T/C [6]: 88%
viability, T/C [7]: 103%
viability, T/C [8]: 108%
viability, T/C [9]: 96.5%
viability, T/C [10]: 102%
viability, T/C [11]: 103%
viability, T/C [12]: 92%
viability, T/C [13]: 103%
viability, T/C [14]: 99.8%
viability, T/C [15]: 99.8%
viability, T/C [16]: 102%
viability, T/C [17]: 105%
viability, T/C [18]: 108%
viability, T/C [19]: 97.5%
viability, T/C [20]: 95.2%
viability, T/C [21]: 107%
viability, T/C [22]: 86.8%
viability, T/C [23]: 106%
viability, T/C [24]: 96.1%
viability, T/C [25]: 102%
viability, T/C [26]: 105%
viability, T/C [27]: 104%
viability, T/C [28]: 112%
viability, T/C [29]: 123%
viability, T/C [30]: 98.7%
viability, T/C [31]: 100%
viability, T/C [32]: 98.2%
viability, T/C [33]: 93.4%
viability, T/C [34]: 101%
viability, T/C [35]: 87.6%
viability, T/C [36]: 80.4%

CC1COCCN1c1cc(C2(O)CC3CCC(C2)O3)c2cnn(-c3ccn[nH]3)c2n1 (centres undefined) + Nc1ccc(C#CCN(C(=O)Cc2ncc(C(F)(F)F)cc2C(F)(F)F)c2ccc(F)cc2)nn1
pIC50 (second compound 0.0316 µM): 5.71
pIC50 (second compound 0.1 µM): 5.74
pIC50 (second compound 0.316 µM): 5.71
pIC50 (second compound 1 µM): 5.74
pIC50 (second compound 3.16 µM): 5.90
pIC50 (second compound 10 µM): 6.05
viability, T/C [1]: 105%
viability, T/C [2]: 104%
viability, T/C [3]: 83%
viability, T/C [4]: 62.2%
viability, T/C [5]: 42.5%
viability, T/C [6]: 30.5%
viability, T/C [7]: 88.2%
viability, T/C [8]: 97.1%
viability, T/C [9]: 80.2%
viability, T/C [10]: 59%
viability, T/C [11]: 43.2%
viability, T/C [12]: 30.8%
viability, T/C [13]: 109%
viability, T/C [14]: 108%
viability, T/C [15]: 89.9%
viability, T/C [16]: 63.4%
viability, T/C [17]: 40.8%
viability, T/C [18]: 33.1%
viability, T/C [19]: 110%
viability, T/C [20]: 101%
viability, T/C [21]: 81.5%
viability, T/C [22]: 61.5%
viability, T/C [23]: 38.9%
viability, T/C [24]: 32.7%
viability, T/C [25]: 96.8%
viability, T/C [26]: 88.7%
viability, T/C [27]: 77.4%
viability, T/C [28]: 52.8%
viability, T/C [29]: 36.5%
viability, T/C [30]: 31%
viability, T/C [31]: 78.3%
viability, T/C [32]: 82.1%
viability, T/C [33]: 67.3%
viability, T/C [34]: 45.7%
viability, T/C [35]: 36.4%
viability, T/C [36]: 24.5%
